In patent US8871264B2, “Immediate release tablet formulations” (AstraZeneca AB, priority 2009, dated 2014):
Where two headings read alike, the source gives them in different places.

Assays:
[1] = phosphate buffer pH 6.8, 37° C., 75 rpm, n=6; for Dissoln. % 10 min: tablets of Example 12, 10 min; for Dissoln. % 20 min: tablets of Example 12, 20 min; for Dissoln. % 30 min: tablets of Example 12, 30 min; for Dissoln. % 45 min: tablets of Example 12, 45 min; for Dissoln. % 75 min: tablets of Example 12, 75 min; for Dissolution % 10 min: tablets of Example 13, 10 min; for Dissolution % 20 min: tablets of Example 13, 20 min; for Dissolution % 30 min: tablets of Example 13, 30 min; for Dissolution % 45 min: tablets of Example 13, 45 min; for Dissoln % 75 min: tablets of Example 13, 75 min
[2] = tested on: type II diabetic patients; conditions: for adjusted mean change in HbA1c from baseline: after 24 weeks; for adjusted mean change in HbA1c from baseline / adjusted mean change in FPG from baseline at Week 24: type 2 diabetes patients; for change in total body weight: at 24 weeks
Protocol: The data represent findings from a randomized, double-blind, placebo-controlled study of 546 individuals with type 2 diabetes whose HbA1c was greater than or equal to 7.0 percent and less than or equal to 10 percent at baseline. […] Patients in all arms also received metformin (greater than or equal to 1500 mg/d). […] Exploratory endpoints included body weight decrease of greater than or equal to 5 percent or greater than or equal to 10 percent as well as body weight percent change from baseline.

[3] = combination of metformin and dapagliflozin, 24 weeks, compared to placebo plus metformin
[4] = dapagliflozin 2.5 mg plus metformin
[5] = dapagliflozin 5 mg plus metformin
[6] = dapagliflozin 10 mg plus metformin

| SMILES | Dissoln. % 10 min [1] [%] | Dissoln. % 20 min [1] [%] | Dissoln. % 30 min [1] [%] | Dissoln. % 45 min [1] [%] | Dissoln. % 75 min [1] [%] | Dissolution % 10 min [1] [%] | Dissolution % 20 min [1] [%] | Dissolution % 30 min [1] [%] | Dissolution % 45 min [1] [%] | Dissoln % 75 min [1] [%] | further results |
| --- | --- | --- | --- | --- | --- | --- | --- | --- | --- | --- | --- |
| CN(C)C(=N)N=C(N)N [Metformin] | 41 | 80 | 97 | 100 | 100 | 41 | 81 | 98 | 100 | 100 | – |
| CCOc1ccc(Cc2cc([C@@H]3O[C@H](CO)[C@@H](O)[C@H](O)[C@H]3O)ccc2Cl)cc1 [Dapagliflozin, (2S,3R,4R,5S,6R)-2-(4-chloro-3-(4-ethoxybenzyl)phenyl)-6-(hydroxymethyl)tetrahydro-2H-pyran-3,4,5-triol] | 38 | 78 | 96 | 99 | 99 | 37 | 77 | 95 | 97 | 97 | fasting plasma glucose (FPG) levels [2, 3]: reduced; glycosylated hemoglobin levels (HbA1c) [2, 3]: reduced; mean reductions in body weight ([2]; compared to individuals taking placebo, 24 weeks): statistically greater mean reductions; patients achieving weight losses greater than or equal to 5 percent ([2]; compared to placebo, exploratory endpoint, 24 weeks): more patients; adjusted mean change in HbA1c from baseline [2, 4]: −0.67%; change in total body weight [2, 4]: -2.21 kg; adjusted mean change in FPG from baseline at Week 24 [2, 4]: -17.8 mg/dL; adjusted mean change in HbA1c from baseline [2, 5]: −0.70%; change in total body weight [2, 5]: -3.04 kg; adjusted mean change in HbA1c from baseline [2, 6]: −0.84%; change in total body weight [2, 6]: -2.86 kg; adjusted mean change in FPG from baseline at Week 24 [2, 6]: −23.5 mg/dL/dl |
